Counter-ions that a name gives are not always drawn. Like-named read-outs stand apart in the source and are kept apart here. Blank lines part the entries; values can stand above or below the compound they belong to.
Columns and labels:
h5-HT6R [1] = target: T1, h5-HT6R (Homo sapiens, UniProt P50406); assay: Inhibition of 5-CT-induced cAMP production in 1321N1 cells expressing h5-HT6R; format: cell-based; parameters: host or cells: 1321N1; conditions: for antagonist effect: 10^–6 M, percent inhibition of control agonist response; for Kb: cAMP
h5-HT6R [2] = target: T1, h5-HT6R
5-HT3R = target: T2, 5-HT3R (Cavia porcellus, UniProt O70212); conditions: for functional classification at 5-HT3R: guinea pig ileum contraction; for antagonist effect: percent inhibition of response to 5-HT 3 μM (contraction of guinea pig ileum)
T2 sequence (O70212 20-490): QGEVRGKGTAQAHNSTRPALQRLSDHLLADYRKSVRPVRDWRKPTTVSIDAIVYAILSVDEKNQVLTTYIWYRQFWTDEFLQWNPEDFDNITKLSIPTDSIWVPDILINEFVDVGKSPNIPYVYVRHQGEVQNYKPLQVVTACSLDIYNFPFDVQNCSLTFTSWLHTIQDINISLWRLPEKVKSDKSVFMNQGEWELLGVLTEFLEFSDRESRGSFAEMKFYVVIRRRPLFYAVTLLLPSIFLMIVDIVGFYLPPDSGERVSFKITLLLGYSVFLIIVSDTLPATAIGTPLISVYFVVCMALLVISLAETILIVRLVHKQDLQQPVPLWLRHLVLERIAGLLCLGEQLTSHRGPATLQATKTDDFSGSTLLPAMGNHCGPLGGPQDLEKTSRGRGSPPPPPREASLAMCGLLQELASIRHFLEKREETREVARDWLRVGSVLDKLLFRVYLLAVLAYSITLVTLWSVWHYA

hD2L = hD2L (Homo sapiens, UniProt P14416); conditions: D2R
h5-HT1A = h5-HT1A (Homo sapiens, UniProt P08908); conditions: 5-HT1AR
h5-HT2AR = h5-HT2AR (Homo sapiens, UniProt P28223); conditions: 5-HT2AR
h5-HT7b = h5-HT7b (Homo sapiens, UniProt P34969); conditions: 5-HT7R
h5-HT3R = h5-HT3R (Homo sapiens, UniProt P46098); conditions: inhibition of inward currents in response to 5-HT (EC80)
male Sprague–Dawley rats [3] = conditions: AUC −25 to 0 min before PCP
male Sprague–Dawley rats [4] = tested on: male Sprague–Dawley rats
[5] = HEK cells stably expressing h5-HT6R

T1 sequence (P50406 whole entry): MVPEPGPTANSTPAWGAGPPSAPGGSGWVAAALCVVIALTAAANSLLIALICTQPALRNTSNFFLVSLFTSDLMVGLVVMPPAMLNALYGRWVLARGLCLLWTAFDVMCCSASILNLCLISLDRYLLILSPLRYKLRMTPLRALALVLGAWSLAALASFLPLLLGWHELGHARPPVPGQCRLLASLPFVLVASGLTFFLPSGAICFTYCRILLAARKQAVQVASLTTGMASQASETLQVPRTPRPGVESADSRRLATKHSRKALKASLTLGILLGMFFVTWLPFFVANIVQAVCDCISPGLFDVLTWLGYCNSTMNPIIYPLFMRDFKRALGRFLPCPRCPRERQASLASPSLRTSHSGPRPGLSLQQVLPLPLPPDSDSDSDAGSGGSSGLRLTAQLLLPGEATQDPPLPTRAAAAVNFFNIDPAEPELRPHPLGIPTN
Sequence of hD2L (P14416 whole entry): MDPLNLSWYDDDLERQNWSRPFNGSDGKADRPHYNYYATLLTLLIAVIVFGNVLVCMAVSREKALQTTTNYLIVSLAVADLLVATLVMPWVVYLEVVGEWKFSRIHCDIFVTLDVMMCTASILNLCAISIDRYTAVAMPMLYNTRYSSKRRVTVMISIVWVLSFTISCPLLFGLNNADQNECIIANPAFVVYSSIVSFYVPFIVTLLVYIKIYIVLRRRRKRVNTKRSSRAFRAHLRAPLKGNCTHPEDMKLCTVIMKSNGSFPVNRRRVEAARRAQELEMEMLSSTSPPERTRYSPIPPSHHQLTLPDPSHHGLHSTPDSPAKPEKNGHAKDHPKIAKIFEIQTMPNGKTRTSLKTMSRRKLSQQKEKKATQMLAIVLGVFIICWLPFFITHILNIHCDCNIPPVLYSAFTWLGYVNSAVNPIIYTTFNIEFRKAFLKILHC
Sequence of h5-HT1A (P08908 whole entry): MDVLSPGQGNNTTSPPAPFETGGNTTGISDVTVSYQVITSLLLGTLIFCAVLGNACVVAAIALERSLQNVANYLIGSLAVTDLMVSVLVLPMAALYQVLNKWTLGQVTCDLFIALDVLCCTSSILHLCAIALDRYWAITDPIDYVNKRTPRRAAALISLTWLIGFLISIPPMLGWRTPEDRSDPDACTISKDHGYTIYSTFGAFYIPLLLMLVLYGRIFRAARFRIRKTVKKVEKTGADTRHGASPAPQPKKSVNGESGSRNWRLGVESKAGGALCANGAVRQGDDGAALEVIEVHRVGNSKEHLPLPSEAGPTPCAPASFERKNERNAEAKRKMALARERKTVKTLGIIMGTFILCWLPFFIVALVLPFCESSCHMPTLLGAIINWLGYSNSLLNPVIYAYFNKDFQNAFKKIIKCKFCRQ
Sequence of h5-HT7b (P34969 1-432 limits assumed): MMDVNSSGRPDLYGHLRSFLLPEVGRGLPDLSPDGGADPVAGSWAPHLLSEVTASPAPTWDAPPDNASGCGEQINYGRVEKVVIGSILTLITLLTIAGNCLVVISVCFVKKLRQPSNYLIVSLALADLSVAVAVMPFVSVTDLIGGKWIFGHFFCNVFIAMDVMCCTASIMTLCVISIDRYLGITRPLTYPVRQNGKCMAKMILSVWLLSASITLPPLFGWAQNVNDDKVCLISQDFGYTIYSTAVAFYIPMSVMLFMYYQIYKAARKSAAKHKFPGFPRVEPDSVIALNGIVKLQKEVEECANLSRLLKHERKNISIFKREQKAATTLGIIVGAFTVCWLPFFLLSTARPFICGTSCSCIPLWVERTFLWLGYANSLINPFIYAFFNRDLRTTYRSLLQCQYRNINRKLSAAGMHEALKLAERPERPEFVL
Sequence of h5-HT2AR (P28223 whole entry, looked up): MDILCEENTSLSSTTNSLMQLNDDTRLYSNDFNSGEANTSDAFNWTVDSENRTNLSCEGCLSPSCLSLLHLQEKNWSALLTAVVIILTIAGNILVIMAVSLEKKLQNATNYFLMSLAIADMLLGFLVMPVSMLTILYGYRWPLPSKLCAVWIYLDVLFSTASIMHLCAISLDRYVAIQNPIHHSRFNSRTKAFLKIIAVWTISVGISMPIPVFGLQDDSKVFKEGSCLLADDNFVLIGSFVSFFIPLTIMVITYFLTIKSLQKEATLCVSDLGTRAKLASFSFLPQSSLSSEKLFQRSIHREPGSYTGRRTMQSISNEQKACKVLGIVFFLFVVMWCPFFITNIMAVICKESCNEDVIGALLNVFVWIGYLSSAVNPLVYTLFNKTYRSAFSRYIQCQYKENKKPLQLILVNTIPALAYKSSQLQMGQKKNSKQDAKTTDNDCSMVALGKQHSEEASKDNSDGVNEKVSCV
Sequence of h5-HT3R (P46098 24-478): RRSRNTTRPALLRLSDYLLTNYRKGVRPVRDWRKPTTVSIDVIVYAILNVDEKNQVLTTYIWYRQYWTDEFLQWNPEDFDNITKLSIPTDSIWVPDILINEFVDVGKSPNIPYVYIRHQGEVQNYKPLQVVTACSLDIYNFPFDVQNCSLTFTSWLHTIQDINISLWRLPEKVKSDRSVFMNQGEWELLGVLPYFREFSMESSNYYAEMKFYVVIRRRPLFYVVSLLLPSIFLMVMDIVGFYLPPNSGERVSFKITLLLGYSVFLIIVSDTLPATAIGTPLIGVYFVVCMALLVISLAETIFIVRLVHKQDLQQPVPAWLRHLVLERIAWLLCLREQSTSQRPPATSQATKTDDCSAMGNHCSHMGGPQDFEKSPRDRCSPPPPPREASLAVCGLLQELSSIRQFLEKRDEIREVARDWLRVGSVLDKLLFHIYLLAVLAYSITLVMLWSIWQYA

SMILES: O=S(=O)(c1ccccc1Br)n1ccc2c(N3CCNCC3)nc3ccccc3c21 [Compound 15, 1-[(2-Bromophenyl)sulfonyl]-4-(piperazin-1-yl)-1H-pyrrolo[3,2-c]quinoline dihydrochloride]
- antagonist effect (h5-HT6R [1]): 69%
- Ki (h5-HT6R [2]; [5]): 13 nM

SMILES: O=S(=O)(c1ccccc1)n1ccc2c(N3CCNCC3)nccc21 [II, reference compound]
- Kb (h5-HT6R [1]; Kb): 1 nM
- Ki (h5-HT6R [2]): 6 nM

SMILES: c1ccc2c(c1)nc(N1CCNCC1)c1cc[nH]c12 [Compound 5e, 4-(Piperazin-1-yl)-1H-pyrrolo[3,2-c]quinoline]
- Kb (h5-HT6R [1]; Kb): > 10000 nM
- functional classification at 5-HT3R (5-HT3R): partial agonist
- Ki (h5-HT6R [2]): 757 nM

SMILES: Cc1cccc(S(=O)(=O)n2ccc3c(N4CCNCC4)nc4ccccc4c32)c1 [Compound 20, 1-[(3-Methylphenyl)sulfonyl]-4-(piperazin-1-yl)-1H-pyrrolo[3,2-c]quinoline dihydrochloride]
- Ki (hD2L): 2160 nM
- Ki (h5-HT1A): 760 nM
- antagonist effect (5-HT3R; 30 nM): 20%
- antagonist effect (5-HT3R; 100 nM): 40%
- Ki (h5-HT2AR): 4630 nM
- Ki (h5-HT7b): 4140 nM

SMILES: O=C1c2cccc3c2[C@H](CCC3)CN1[C@@H]1CN2CCC1CC2 [palonosetron]
- IC50 (h5-HT3R): 1.7 nM

SMILES: O=S(=O)(c1cccc(Cl)c1)n1ccc2c(N3CCNCC3)nc3ccccc3c21 [Compound 18, 1-[(3-Chlorophenyl)sulfonyl]-4-(piperazin-1-yl)-1H-pyrrolo[3,2-c]quinoline dihydrochloride]
- Ki (hD2L): 1340 nM
- Ki (h5-HT1A): 773 nM
- antagonist effect (5-HT3R; 100 nM): 11%
- antagonist effect (5-HT3R; 300 nM): 72%
- Ki (h5-HT2AR): 1670 nM
- Ki (h5-HT7b): 1790 nM

SMILES: O=S(=O)(c1ccc(F)cc1)n1ccc2c(N3CCNCC3)nc3ccccc3c21 [Compound 22, 1-[(4-Fluorophenyl)sulfonyl]-4-(piperazin-1-yl)-1H-pyrrolo[3,2-c]quinoline dihydrochloride]
- antagonist effect (h5-HT6R [1]): 72%
- antagonist effect (5-HT3R; 300 nM): 48 (300 nM) %
- Ki (h5-HT6R [2]; [5]): 18 nM

SMILES: O=S(=O)(c1ccc(C(F)(F)F)cc1)n1ccc2c(N3CCNCC3)nc3ccccc3c21 [Compound 23, 1-{[4-(Trifluoromethyl)phenyl]sulfonyl}-4-(piperazin-1-yl)-1H-pyrrolo[3,2-c]quinoline dihydrochloride]
- antagonist effect (h5-HT6R [1]): 63%
- Ki (h5-HT6R [2]; [5]): 34 nM

SMILES: CN1CCN(c2nc3ccccc3c3[nH]ccc23)CC1 [Compound 5d, 4-(4-Methylpiperazin-1-yl)-1H-pyrrolo[3,2-c]quinoline]
- Kb (h5-HT6R [1]; Kb): > 10000 nM
- functional classification at 5-HT3R (5-HT3R): agonist
- Ki (h5-HT6R [2]): 245 nM

SMILES: CC(C)c1ccc(S(=O)(=O)n2ccc3c(N4CCNCC4)nc4ccccc4c32)cc1 [Compound 24, 1-[(4-iso-Propylphenyl)sulfonyl]-4-(piperazin-1-yl)-1H-pyrrolo[3,2-c]quinoline dihydrochloride]
- antagonist effect (h5-HT6R [1]): 65%
- antagonist effect (5-HT3R; 300 nM): 38 (300 nM) %
- Ki (h5-HT6R [2]; [5]): 14 nM

SMILES: COc1ccc(S(=O)(=O)Nc2cc(Cl)cc(Cl)c2OC)cc1N1CCNCC1 [SB399885]
- effect on spontaneous activity (male Sprague–Dawley rats [3]; SB399885 1 mg/kg IP): neither compound affected spontaneous activity
- effect on spontaneous activity (male Sprague–Dawley rats [3]; SB399885 9 mg/kg IP): sedative-like action
- effect on PCP-induced hyperactivity (male Sprague–Dawley rats [4]; SB399885 1 mg/kg IP, AUC post-PCP vs vehicle): enhances PCP-induced hyperactivity compared with vehicle
- effect on PCP-induced hyperactivity (male Sprague–Dawley rats [4]; SB399885 alone IP, doses up to 9 mg/kg, AUC 1st and 2nd hour post-PCP): did not affect PCP-induced hyperactivity

SMILES: O=S(=O)(c1ccc(F)cc1)n1ccc2c(N3CCNCC3)nc3ccccc3c21 (as salt: hydrochloride) [Compound 22, 1-[(4-Fluorophenyl)sulfonyl]-4-(piperazin-1-yl)-1H-pyrrolo[3,2-c]quinoline dihydrochloride]
- melting point: 172 to 174 °C

SMILES: CNC1CCN(c2nc3ccccc3c3c2ccn3S(=O)(=O)c2ccccc2)C1 (stereo not shown) (as salt: hydrochloride) [Compound 10, N-Methyl-1-(1-(phenylsulfonyl)-1H-pyrrolo[3,2-c]quinolin-4-yl)pyrrolidin-3-amine dihydrochloride]
- melting point: 256 to 258 °C

- melting point: 157 to 159 °C
SMILES: O=S(=O)(c1ccccc1Cl)n1ccc2c(N3CCNCC3)nc3ccccc3c21 (as salt: hydrochloride)

SMILES: O=S(=O)(c1ccccc1)n1ccc2c(N3CCCNCC3)nc3ccccc3c21 (as salt: hydrochloride) [Compound 11, 4-(1,4-Diazepan-1-yl)-1-(phenylsulfonyl)-1H-pyrrolo[3,2-c]quinoline dihydrochloride]
- melting point: 247 to 248 °C

SMILES: Cc1nccn1CC1CCc2c(c3ccccc3n2C)C1=O (stereo not shown) [ondansetron, reference compound]
- effect on spontaneous activity (male Sprague–Dawley rats [3]; ondansetron 0.5 mg/kg IP): neither compound affected spontaneous activity
- Kb (h5-HT6R [1]; read-out: Kb): 58200 nM
- pA2 (5-HT3R; antagonist potency, Schild analysis, guinea pig ileum): pA2 = 7.11 ± 0.12

SMILES: O=S(=O)(c1ccccc1)n1ccc2c(N[C@H]3CCNC3)nc3ccccc3c21 (as salt: hydrochloride) [Compound 8, (S)-1-(Phenylsulfonyl)-N-(pyrrolidin-3-yl)-1H-pyrrolo[3,2-c]quinolin-4-amine dihydrochloride]
- melting point: 220 to 222 °C

— PMC8474115 (Journal of Medicinal Chemistry, 2021)
